Assay results from patent publication US9975903B2, “Condensed heterocyclic compound” (Takeda Pharmaceutical Company Limited, priority 2014, dated 2018).
Structures can show the parent of a compound that is named as a salt.

target: T1, Human recombinant enteropeptidase (Homo sapiens, UniProt P98073); experiment: Human enteropeptidase inhibitory activity (Test Example 1); assay type: biochemical; settings: 3.3 μM test compound; inhibition rate from fluorescence intensity at 2 hours after the start of the reaction
T1 construct: purchased ITSI-Biosciences LLC #REN-260
Method: Human recombinant enteropeptidase (#REN-260, ITSI-Biosciences LLC) was diluted with an assay buffer (50 mM Tricine, pH 8.0, 0.01 (w/v) %, Tween 20, 10 mM CaCl2) to prepare a 24 mU/mL enzyme solution. Subsequently, 5FAM-Abu-Gly-Asp-Asp-Asp-Lys-Ile-Val-Gly-Gly-Lys(CPQ2)-Lys-Lys-NH2 (SEQ ID NO: 1, purity: 97.2%, CPC Scientific Inc.) was diluted with the assay buffer to prepare a 2.1 μM substrate solution. A test compound is dissolved in DMSO into a 1 mM solution, and the solution was diluted by 100-fold with the assay buffer to give a compound solution. To a 384-well black plate (#784076, Greiner Bio-One), 5 μL of the compound solution and 5 μL of the substrate solution were added and mixed, and 5 μL of the enzyme solution was then added to the mixture, followed by mixing to start the reaction. The fluorescence intensity was measured with a fluorescence plate reader EnVision (The Perkin-Elmer Corp.) at an excitation wavelength of 485 nm and a fluorescence wavelength of 535 nm. The same reaction as above except that the test compound was not contained was performed (test compound non-addition group). Furthermore, the same reaction as above except that the test compound and the enzyme were not contained was performed (control group). The inhibition rate was calculated using the fluorescence intensity at 2 hours after the start of the reaction by the following expression: Inhibition rate (%)=(1−((fluorescence intensity of test compound addition group)−(fluorescence intensity of control group))/((fluorescence intensity of test compound non-addition group)−(fluorescence intensity of control group)))×100

T1 sequence (P98073 whole entry): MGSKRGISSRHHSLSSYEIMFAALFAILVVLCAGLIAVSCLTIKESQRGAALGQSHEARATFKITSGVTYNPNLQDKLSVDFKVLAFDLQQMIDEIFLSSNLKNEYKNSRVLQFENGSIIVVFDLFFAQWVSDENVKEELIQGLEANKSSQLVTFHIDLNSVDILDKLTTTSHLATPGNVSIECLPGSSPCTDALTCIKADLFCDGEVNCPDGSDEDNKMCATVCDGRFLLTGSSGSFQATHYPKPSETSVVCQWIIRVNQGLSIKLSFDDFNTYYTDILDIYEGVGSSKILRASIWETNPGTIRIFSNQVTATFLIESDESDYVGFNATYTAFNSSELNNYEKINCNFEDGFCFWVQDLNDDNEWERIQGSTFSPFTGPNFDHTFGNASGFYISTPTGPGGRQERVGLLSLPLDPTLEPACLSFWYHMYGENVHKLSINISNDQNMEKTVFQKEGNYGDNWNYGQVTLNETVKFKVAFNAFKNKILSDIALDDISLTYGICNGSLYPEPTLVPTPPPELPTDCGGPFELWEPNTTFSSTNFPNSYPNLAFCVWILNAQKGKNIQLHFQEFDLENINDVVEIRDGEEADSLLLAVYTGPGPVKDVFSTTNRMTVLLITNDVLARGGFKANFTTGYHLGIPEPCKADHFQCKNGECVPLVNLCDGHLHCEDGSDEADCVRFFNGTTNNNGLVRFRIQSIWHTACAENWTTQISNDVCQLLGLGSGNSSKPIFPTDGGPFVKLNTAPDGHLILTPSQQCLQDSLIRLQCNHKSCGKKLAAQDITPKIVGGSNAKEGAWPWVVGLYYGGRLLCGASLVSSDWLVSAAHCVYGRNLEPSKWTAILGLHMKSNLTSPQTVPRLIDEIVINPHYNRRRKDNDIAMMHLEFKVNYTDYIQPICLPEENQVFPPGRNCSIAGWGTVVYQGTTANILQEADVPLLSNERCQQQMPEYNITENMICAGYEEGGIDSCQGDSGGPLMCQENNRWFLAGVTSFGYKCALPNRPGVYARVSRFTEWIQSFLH

3.3 μM Inhibition	Compound
98%	diethyl (4-(((10- carbamimidamido- 13-oxo-6,7,8,13- tetrahydro- dibenzo[b,f] [1,4]dioxecin-4- yl)carbonyl)amino) benzyl)phosphorate [Example 4]

same assay, conditions: 3.3 μM test compound; inhibition rate from fluorescence intensity at 2 hours after the start of the reaction; read-out: 3.3 μM Inhibition

Compound	inhibition at 3.3 µM
N=C(N)Nc1ccc2c(c1)CCCOc1c(cccc1C(=O)N[C@@H](Cc1ccc(O)cc1)C(=O)O)OC2=O [Example 10, N-((10-carbamimidamido-13-oxo-6,7,8,13-tetrahydro-dibenzo[b,f] [1,4]dioxecin-4-yl)carbonyl)-L-tyrosine]	101%
N=C(N)Nc1ccc2c(c1)CCCCc1c(cccc1C(=O)O)OC2=O [Example 34, 3-carbamimidamido-14-oxo-6,7,8,14-tetrahydro-6H-dibenzo[b, h]oxecine-9-carboxylic acid]	75%
Cc1cc2c(c(C(=O)N[C@@H](CC(=O)O)C(=O)O)c1)OCCCc1cc(NC(=N)N)ccc1C(=O)O2 [Example 70, N-((10-carbamimidamido-2-methyl-13-oxo-6,7,8,13-tetrahydro-dibenzo[b,f] [1,4]dioxecin-4-yl)carbonyl)-L-aspartic acid]	102%
N=C(N)Nc1ccc2c(c1)CCCOc1c(cccc1C(=O)O)OC2=O [Example 29, 10-carbamimidamido-13-oxo-6,7,8,13-tetrahydro-dibenzo[b,f] [1,4]dioxecine-4-carboxylic acid]	101%
N=C(N)Nc1ccc2c(c1)CCCCc1c(cccc1C(=O)N[C@@H](CC(=O)O)C(=O)O)OC2=O [Example 37, N-((3-Carbamimidamido-14-oxo-5,7,8,14-tetrahydro-6H-dibenzo[b,h]oxecin-9-yl)carbonyl)-L-aspartic acid]	101%
N=C(N)NCCC[C@H](NC(=O)c1cccc2c1OCCCc1cc(NC(=N)N)ccc1C(=O)O2)C(=O)O [Example 8, N^~2^~-((10-carbamimidamido-13-oxo-6,7,8,13-tetrahydro-dibenzo[b,f] [1,4]dioxecin-4-yl)carbonyl)-L-arginine]	100%
N=C(N)Nc1ccc2c(c1)CCc1ccccc1OC2=O [Example 58, 1-(6-Oxo-11,12-dihydro-6H-dibenzo[b,f]oxocin-9-yl)guanidine trifluoroacetate]	55%
N=C(N)Nc1ccc2c(c1)CCCCCCc1c(cccc1C(=O)N[C@@H](CC(=O)O)C(=O)O)OC2=O [Example 77, N-((3-Carbamimidamido-16-oxo-5,7,8,9,10,16-hexahydro-6H-dibenzo[b,j]oxacyclododecin-11-yl)carbonyl)-L-aspartic acid]	99%
N=C(N)Nc1ccc2c(c1)CCCc1cc(C(=O)N[C@@H](CC(=O)O)C(=O)O)ccc1OC2=O [Example 73, N-((9-carbamimidamido-6-oxo-6,11,12,13-tetrahydro-dibenzo[b,g]oxonin-2-yl)carbonyl)-L-aspartic acid]	100%
N=C(N)Nc1ccc2c(c1)CCCOc1c(cccc1C(=O)N1CCC[C@H]1C(=O)O)OC2=O [Example 12, 1-((10-carbamimidamido-13-oxo-6,7,8,13-tetrahydro-dibenzo[b,f] [1,4]dioxecin-4-yl)carbonyl)-L-proline]	101%
N=C(N)Nc1ccc2c(c1)CCc1cc(CCC(=O)N[C@@H](CC(=O)O)C(=O)O)ccc1OC2=O [Example 56, N-(3-(9-carbamimidamido-6-oxo-11,12-dihydro-6H-dibenzo[b,f]oxocin-2-yl)propanoyl)-L-aspartic acid]	100%
N=C(N)Nc1ccc2c(c1)CCCOc1c(cccc1C(=O)N[C@@H](Cc1ccccc1)C(=O)O)OC2=O [Example 87, N-((10-carbamimidamido-13-oxo-6,7,8,13-tetrahydro-dibenzo[b,f] [1,4]dioxecin-4-yl)carbonyl)-L-phenylalanine]	101%
N=C(N)Nc1ccc2c(c1)CCCCc1cc3c(cc1OC2=O)OC[C@H]3CC(=O)N[C@@H](CC(=O)O)C(=O)O [Example 39, N-(((10S)-3-carbamimidamido-15-oxo-5,7,8,10,11,15-hexahydro-6H-12, 14-dioxabenzo[5,6]cyclodeca[1,2-f]inden-10-yl)acetyl)-L-aspartic acid]	98%
N=C(N)Nc1ccc2c(c1)CCCOc1c(cccc1C(=O)N(CC(=O)O)[C@@H](CC(N)=O)C(=O)O)OC2=O [Example 65, N^2-((10-Carbamimidamido-13-oxo-6,7,8,13-tetrahydrodibenzo[b,f][1,4]dioxecin-4-yl)carbonyl)-N^2-(carboxymethyl)-L-asparagine]	100%
N=C(N)Nc1ccc2c(c1)CCCOc1c(CCC(=O)N[C@@H](CC(=O)O)C(=O)O)cccc1OC2=O [Example 47, N-(3-(10-Carbamimidamido-13-oxo-6,7,8,13-tetrahydrodibenzo[b,f][1,4]dioxecin-4-yl)propanoyl)aspartic acid]	101%
N=C(N)Nc1ccc2c(c1)CCCOc1cc(C(=O)N[C@H](CC(=O)O)C(=O)O)ccc1OC2=O (stereo in doubt) [Example 45, N-((10-carbamimidamido-13-oxo-6,7,8,13-tetrahydro-dibenzo[b,f] [1,4]dioxecin-3-yl)carbonyl)aspartic acid]	100%
N=C(N)Nc1ccc2c(c1)CCCOc1c(cccc1C(=O)NCP(=O)(O)O)OC2=O [Example 25, ((((10-carbamimidamido-13-oxo-6,7,8,13-tetrahydro-dibenzo[b,f] [1,4]dioxecin-4-yl)carbonyl)amino)methyl)phosphonic acid]	102%
N=C(N)Nc1ccc2c(c1)CCCOc1c(cccc1C(=O)N(CC(=O)O)[C@@H](Cc1ccc(O)cc1)C(=O)O)OC2=O [Example 92, N-((10-carbamimidamido-13-oxo-6,7,8,13-tetrahydro-dibenzo[b,f] [1,4]dioxecin-4-yl)carbonyl)-N-(carboxymethyl)-L-tyrosine]	101%
N=C(N)Nc1ccc2c(c1)CCCOc1c(cccc1C(=O)N[C@@H](CCC(=O)O)C(=O)O)OC2=O [Example 18, N-((10-Carbamimidamido-13-oxo-6,7,8,13-tetrahydrodibenzo[b,f][1,4]dioxecin-4-yl)carbonyl)-L-glutamic acid]	101%

More lines, now with the values ahead:

inhibition at 3.3 µM	Compound
100%	N=C(N)Nc1ccc2c(c1)CCCOc1c(cccc1C(=O)N(CC(=O)O)[C@@H](CC(=O)O)C(=O)O)OC2=O [Example 104, N-((10-Carbamimidamido-13-oxo-6,7,8,13-tetrahydrodibenzo[b,f][1,4]dioxecin-4-yl)carbonyl)-N-(carboxymethyl)-L-aspartic acid]
99%	N#Cc1cc2c(c(C(=O)N[C@@H](CC(=O)O)C(=O)O)c1)OCCCc1cc(NC(=N)N)ccc1C(=O)O2 [Example 114, N-((10-Carbamimidamido-2-cyano-13-oxo-6,7,8,13-tetrahydrodibenzo[b,f][1,4]dioxecin-4-yl)carbonyl)-L-aspartic acid]
100%	N=C(N)Nc1ccc2c(c1)CCCOc1c(ccc(CCC(=O)O)c1C(=O)O)OC2=O [Example 111, 10-carbamimidamido-3-(2-carboxyethyl)-13-oxo-6,7,8,13-tetrahydro-dibenzo[b,f] [1,4]dioxecine-4-carboxylic acid]
99%	N=C(N)Nc1ccc2c(c1)CCCOc1c(cccc1C(=O)N(Cc1cccc(C(=O)O)c1)C(CC(=O)O)CC(=O)O)OC2=O [Example 144, 3-(((10-Carbamimidamido-13-oxo-6,7,8,13-tetrahydrodibenzo[b,f][1,4]dioxecin-4-yl)carbonyl) (3-carboxybenzyl)amino)pentanedioic acid]
101%	N=C(N)Nc1ccc2c(c1)CCCOc1c(cccc1C(=O)N(CC(=O)O)[C@@H](Cc1ccc(OCCNCC(=O)O)cc1)C(=O)O)OC2=O [Example 121, N-((10-Carbamimidamido-13-oxo-6,7,8,13-tetrahydrodibenzo[b,f][1,4]dioxecin-4-yl)carbonyl)-N-(carboxymethyl)-O-(2-((carboxymethyl)amino)ethyl)-L-tyrosine]
101%	N=C(N)Nc1ccc2c(c1)CCCOc1c(ccc(CCC(=O)O)c1C(=O)N(CC(=O)O)Cc1cccc(CN(CC(=O)O)CC(=O)O)c1)OC2=O [Example 148, 3-(4-((3-((bis(carboxymethyl)amino)methyl)-benzyl) (carboxymethyl)carbamoyl)-10-carbamimidamido-13-oxo-6,7,8,13-tetrahydro-dibenzo[b,f] [1,4]dioxecin-3-yl)propanoic acid]
101%	CN(CC(=O)N[C@@H](CC(=O)O)C(=O)O)C(=O)c1cccc2c1OCCCc1cc(NC(=N)N)ccc1C(=O)O2 [Example 103, N-((10-carbamimidamido-13-oxo-6,7,8,13-tetrahydro-dibenzo[b,f] [1,4]dioxecin-4-yl)carbonyl)-N-methylglycyl-L-aspartic acid]
98%	N=C(N)Nc1ccc2c(c1)CCCOc1c(cccc1C(=O)N(CC(=O)O)Cc1ccc(CC(=O)O)cc1)OC2=O [Example 142, N-((10-carbamimidamido-13-oxo-6,7,8,13-tetrahydro-dibenzo[b,f] [1,4]dioxecin-4-yl)carbonyl)-N-(4-(carboxymethyl)benzyl)glycine]
